Results on six compounds are retold here after patent US6248750A, “9-hydroxyamino tetrahydroacridine and related compounds” (Hoechst Roussel Pharmaceuticals, priority 2000, dated 2001).

The target in one assay is acetylcholinesterase (Homo sapiens, UniProt P22303). In words: biochemical.
A further assay relates to mice. In words: Dark Avoidance Assay (reversal of scopolamine induced memory deficit). The class given is in vivo. The note with it: retest after 24 hours.

Structures can show the parent of a compound that is named as a salt. Where two headings read alike, the source gives them in different places.

Chain of acetylcholinesterase (P22303 32-614): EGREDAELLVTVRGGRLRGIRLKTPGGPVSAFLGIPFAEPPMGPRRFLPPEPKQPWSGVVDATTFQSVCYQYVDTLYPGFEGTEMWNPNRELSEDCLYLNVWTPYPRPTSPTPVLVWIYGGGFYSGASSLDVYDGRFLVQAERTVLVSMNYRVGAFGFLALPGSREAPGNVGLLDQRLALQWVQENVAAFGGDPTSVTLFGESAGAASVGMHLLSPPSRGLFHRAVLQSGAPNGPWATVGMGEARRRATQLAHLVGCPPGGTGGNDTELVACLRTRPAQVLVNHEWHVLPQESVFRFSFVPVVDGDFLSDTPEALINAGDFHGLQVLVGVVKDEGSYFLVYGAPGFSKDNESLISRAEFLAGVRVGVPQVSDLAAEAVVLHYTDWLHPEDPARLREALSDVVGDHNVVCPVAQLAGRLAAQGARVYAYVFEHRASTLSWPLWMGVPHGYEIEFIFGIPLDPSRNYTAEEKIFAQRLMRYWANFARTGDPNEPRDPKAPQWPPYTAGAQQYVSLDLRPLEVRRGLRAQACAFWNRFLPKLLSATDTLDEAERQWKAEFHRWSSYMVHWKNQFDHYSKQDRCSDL
Description for mice: In this assay mice are tested for their ability to remember an unpleasant stimulus for a period of 24 hours. A mouse is placed in a chamber that contains a dark compartment; a srong incandescent light drives it to the dark compartment, where an electric shock is administered through metal plates on the floor. The animal is removed from the testing apparatus and tested again, 24 hours later, for the ability to remember the electric shock.
If scopolamine, an anticholinergic that is known to cause memory impairment, is administered before an animal's initial exposure to the test chamber, the animal re-enters the dark compartment shortly after being placed in the test chamber 24 hours later.

On to `CCCONc1c2c(nc3ccccc13)CCCC2` [N-Propyloxy-1,2,3,4-tetrahydro-9-acridinamine, oxalate, hemihydrate], for which the IC50 on acetylcholinesterase (read-out: Cholinesterase Inhibition IC50, photometric method of Ellman et al.) was 0.83 µM.
Take `CON(C)c1c2c(nc3ccccc13)CCCC2` [N-Methoxy-N-methyl-1,2,3,4-tetrahydro-9-acridinamnine hydrochloride]: on acetylcholinesterase (read-out: Cholinesterase Inhibition IC50), the IC50 is 27 µM. In addition, the “% Animals with Scopolamine Induced memory deficit reversed” value (shortened to “% Animals”) in the assay on mice (dose 1.0 mg/kg s.c.) came out at 27%.
Regarding `Fc1ccccc1CONc1c2c(nc3ccccc13)CCCC2` [N-(2-Fluorobenzyloxy)-1,2,3,4-tetrahydro-9-acridinamine], half-maximal inhibition at acetylcholinesterase (IC50) was put at 5.2 µM.
As to `Nc1c2c(nc3ccccc13)CCCC2` [9-Amino-1,2,3,4-tetrahydroacridine, reference compound], the “% Animals” value with mice (dose 0.31 mg/kg s.c.) stood at 20%.
As to `CONc1c2c(nc3ccccc13)CCCC2.Cl` [N-Methoxy-1,2,3,4-tetrahydro-9-acridinamine hydrochloride], the IC50 against acetylcholinesterase came to 0.51 µM. Besides, in the assay with mice (dose 1.0 mg/kg s.c.), the “% Animals” value was found to be 27%.
As to `c1ccc(CONc2c3c(nc4ccccc24)CCCC3)cc1` [N-Benzyloxy-1,2,3,4-tetrahydro-9-acridinamine], inhibition against acetylcholinesterase was half-maximal at 6.1 µM (IC50).
